{
  "source": "patent US20250367225A1",
  "about": "(priority 2022, published 2025)",
  "key": {"[1]": {"system": "SARS-COV-2 Omicron BA.1 variant (B.1.1.529)", "parameters": "species or system BALB/c mice", "conditions": "mouse, in vivo"}, "[2]": {"system": "SARS-COV-2 Delta variant (B.1.617.2)", "parameters": "species or system Syrian hamsters", "conditions": "hamster, in vivo"}},
  "data": [
    {"smiles": "CCCCCCCCCCCCCC[C@@H](O)[C@@H](O)[C@H](CO[C@H]1O[C@H](CO)[C@H](O)[C@H](O)[C@H]1O)NC(=O)CCCCCCCCCCc1ccc(F)cc1", "note": "[7DW8-5]", "values": [
      {"measurement": "body weight", "setting": "[1]", "result": "significant weight gain"},
      {"measurement": "virus replication in lung tissues", "setting": "[1]", "result": "complete inhibition"},
      {"measurement": "viral load in lung tissues", "setting": "[2]", "result": "significantly decreased"},
      {"measurement": "viral load in nasal tissues", "setting": "[2]", "result": "significantly decreased"}
    ]}
  ]
}
